Data reported in patent US6962924B2, “Salt and polymorphs of desloratadine hemifumarate” (priority 2002, dated 2005).

Legend:
[1] = Hygroscopicity (moisture absorption) in DVS; type: physicochemical; details: relative humidity (RH) of 90%
[2] = Stability of the polymorphic form (vacuum at 50° C., crushing); type: physicochemical
[3] = mixed with three volumes of lactose monohydrate, 40° C. and 75% RH, one week

## Clc1ccc2c(c1)CCc1cccnc1C2=C1CCNCC1.Clc1ccc2c(c1)CCc1cccnc1C2=C1CCNCC1.O=C(O)C=CC(=O)O [Desloratadine hemifumarate (polymorph 1), Descarbonylethoxyloratadine Hemifumarate]
[1]; listed as desloratadine polymorphic form 1
  moisture absorption value: 0.9%
[2]
  Change of polymorphic form under vacuum at 50° C.: can be changed to polymorphic form 2
[3]
  Appearance after stress storage (color, crystallinity, texture): retained its crystallinity, color and the texture

## Clc1ccc2c(c1)CCc1cccnc1C2=C1CCNCC1.Clc1ccc2c(c1)CCc1cccnc1C2=C1CCNCC1.O=C(O)C=CC(=O)O [Desloratadine hemifumarate (polymorph 2), Descarbonylethoxyloratadine Hemifumarate]
[1]; listed as Desloratadine hemifumarate polymorphic form 2
  moisture absorption value: 0.3%
[3]
  Appearance after stress storage (color, crystallinity, texture): retained its crystallinity, color and the texture

## Clc1ccc2c(c1)CCc1cccnc1C2=C1CCNCC1 [Standard desloratadine, 8-chloro-6,11-dihydro-11-(4-piperidylidene)-5H-benzo[5,6]-cyclohepta[1,2-b]pyridine, reference compound]
[1]
  moisture absorption value: 0.3%
[3]
  Appearance after stress storage (color, crystallinity, texture): showed discoloration
